In US9579344B2, “Use of nitrite salts in treating tissue damage” (Board of Supervisors of Louisiana State University and …, priority 2009, dated 2017):
Like-named read-outs stand apart in the source and are kept apart here.

Legend:
C2C12 myoblasts = system: C2C12 myoblasts
Source text: (§1) A contained hypoxia tissue culture system was used allowing the long term culturing of cells in hypoxia (24 hrs). A fluorescent plate reader in hypoxic chamber measured NO formation using the fluorescent dye DAF-FM.

[1] = system: ischemic hind limb of B6.BKS-Lepr^db/db diabetic mice; details: aged diabetic mice, 165 ug/kg
Source text: (§2) B6.BKS-Lepr^db/db diabetic mice were purchased from Jackson's laboratory and housed in the animal center of LSU Health Sciences Center for 6 months. Surgical hind limb ischemia was created in 9 month-old male (Db/Db) type-2 diabetic mice. The mice were anesthetized by isoflurane inhalation and the left groin area was shaved and naired. The left external iliac artery and vein, left femoral artery and vein, left saphenous artery and vein and deep femoral and circumflex arteries and veins were ligated, cut, and excised to obtain a mouse model of critical hind limb ischemia. […] All treatments were performed in a double-blinded manner.
Laser Doppler blood flows were measured using a Vasamedics Laserflo BPM2 device in the gastrocnemius pre-ligation, post-ligation and on days 1, 3, 5, 7, 9, 11, 13, 15, 17, 19 and 21 post-ligation. Blood vessels visible through the skin were avoided to ensure readings indicative of muscle blood flow. Measurements were recorded as milliliter of blood flow per 100 grams of tissue per minute. Percent blood flows were calculated as: a/b××100 where a=ischemic limb average flow and b=non-ischemic limb average flow.

[2] = system: iliac vein smooth muscle cells, aortic smooth muscle cells
Protocol: as §1
(§3) The effect of specific inhibitors of NO production, carboxy PTIO (2-(4-Carboxyphenyl)-4,4,5,5-tetramethylimidazoline-1-oxyl-3-oxide), allopurinol and L-NAME, was also analyzed. […] Results for iliac vein smooth muscle cells are shown in FIGS. 7A, 7B and 8; results for aortic smooth muscle cells are shown in FIGS. 9A, 9B and 10; results for coronary artery cells are shown in FIGS. 11A, 11B and 12, results for umbillical vein cells are shown in FIGS. 13A, 13B and 14.

[3] = system: coronary artery endothelial cells, umbilical vein endothelial cells
Protocol: as §1, §3

[4] = system: gastrocnemius muscles of aged diabetic mice; details: non-ischemic tissues of aged diabetic mice (FIG. 21B)
Source text: as §2
The gastrocnemius muscles from ischemic and non-ischemic hind limbs were removed, dissected, and embedded in OCT freezing medium. Frozen tissue blocks were cut into 5 μm sections and slides prepared. A primary antibody against PECAM-1 was added at a 1:200 dilution along with anti-Ki67 (1:350 dilutions) and incubated at 37° C. for 1 hour. Slides were then washed and a Cy3 conjugated secondary antibody was added at a 1:250 dilution along with anti-rabbit Ig antibody at a 1:150 dilution and incubated at room temperature for 1 hour. Slides were once again washed and mounted with cover slips using Vectashield DAPI. […] Cellular proliferation was determined as the ratio between regions positive for Ki67 and DAPI positive area.

[5] = system: ischemic hindlimbs of C57Bl/6J mice; details: fluorescence angiograms, 4 seconds blush time, vs PBS
Protocol: (§4) Hind limb ischemia was induced by ligating the left common femoral artery proximal to origin of profunda femoris artery according to Senthilkumar, A., Smith, R. D., Khitha, J., Arora, N., Veerareddy, S., Langston, W., Chidlow, 1H., Jr., Barlow, S. c., Teng, x., Patel, R. P., et al. 2007. Arterioscler Thromb Vasc Biol 27: 1947-1954. Mice were anesthetized with intraperitoneal injection of ketamine (100 mglkg) and xylazine (8 mglkg); surgery was performed under aseptic conditions. The common femoral vein and femoral nerve were dissected away from the artery. Two ligatures were placed in the common femoral artery proximal to the profunda femoris artery and then transected between the two ligations. The incision was then closed and the ligation was immediately verified by laser Doppler measurement of tissue blood flow.

[6] = system: ischemic tissue gene expression
Protocol: as §4
RNA integrity was checked using the Agilent 2100 Bioanalyzer (Agilent Technologies, Palo Alto, Calif.). […] Double stranded cDNA was synthesized from 5 ug total RNA using a Superscript cDNA synthesis Kit (Invitrogen, Carlsbad, Calif.) and purified using the Gene Chip Sample Cleanup Module (Affymetrix, Santa Vlara, Calif.). After biotin-labeling, the cDNA were fragmented at 94° C. and hybridized to the GeneChip® Mouse Genome 430 2.0 Array (Affymetrix), which contains 39,000 fully annotated transcripts of the mouse genome. After washing and staining, the arrays were scanned using GeneChip Scanner 3000 (Affymetrix) and hybridization efficiency determined by housekeeping control and spike control probe sets.
Array data were globally scaled to a target intensity value of 500 to compare individual array experiments. To determine differentially expressed genes between PBS and nitrite treatment, data were log transformed and uploaded into Genesifter program (www.genesifter.net). Identification of significant changes in gene expression were determined using a pair-wise comparison of PBS versus nitrite therapy gene array data at each individual time point with the following criteria: a minimal 2-fold difference in expression with no maximal threshold limit, a hybridization quality cutoff of 1, and an unpaired student t-test between treatment groups followed by Benjamini and Hochberg post test to limit false discovery rates.
The resulting output of network analysis was broken down according to the genetic composition of networks, the biological function of the networks, the number of interrelated network relationships, as well as statistical analysis of individual networks.
Induction of chronic hind limb ischemia was performed according to the method in Example 1. […] Nitrite doses were given once in the morning (8 am) and a second in the afternoon (5 pm) with muscle tissue harvested on the morning of the 4th and 8th days (to give an entire 3 and 7 day period for study). Four muscle specimens from individual mice were harvested per treatment cohort per time point for a total of 16 individual specimens for gene array analysis. Harvested tissue was immediately frozen in liquid nitrogen for subsequent total RNA isolation. Laser doppler blood flow measurements were taken from non-ischemic and ischemic hind limbs prior to tissue collection to determine the amount of ischemic tissue perfusion using a Vasamedics Laserflo BPM2 deep tissue penetrating doppler device. Percent restoration of blood flow was determined by dividing the ischemic hind limb blood flow by the non-ischemic hind limb blood flow and multiplying by 100. Statistical analysis of changes in tissue blood flow between treatment groups at specific time points were performed with an unpaired students t-test using Prism software (Graphpad).

[7] = aged diabetic mice
Source text: as §2
Blood glucose measurements were taken using Ascensia Elite blood glucose test strips and a Bayer Glucometer Elite.
Plasma total cholesterol and LDL levels were determined using a Siemens Vista Clinical Chemistry analyzer.

C2C12 myoblast cells = details: hypoxic conditions
cultured cells = details: hypoxic and normoxic conditions, 100 nM or 1 uM sodium nitrite (FIG. 16)
Protocol: FIG. 16 depicts the chemiluminescent detection of nitrite/nitric oxide during hypoxia.
as §3

[8] = system: ischemic hindlimbs of aged diabetic mice; details: PBS controls showed extensive necrosis and digit loss
Source text: as §2

[9] = cardiovascular development and function, skeletal muscle development, tissue development
[10] = cellular assembly and organization, carbohydrate metabolism, molecular transport
[11] = day 3, 165 μg/kg twice daily i.p., vs PBS
[12] = day 3, Ingenuity network analysis
[13] = day 7, 165 μg/kg twice daily i.p., vs PBS
[14] = inflammatory response, neurological disease, cellular development

With `O=NO` [sodium nitrite] the “levels of NO” value (C2C12 myoblasts; 0.01 uM sodium nitrite, only in hypoxic conditions (FIG. 24B)) was “significantly increased”, the NO levels (C2C12 myoblasts; 100 uM sodium nitrite (FIG. 24A)) was “did not alter” and the “blood flow in ischemic hind limbs compared with PBS-treated control animals” value ([1]; all time points analyzed) was “significantly greater”. The “blood flow in ischemic hind limbs relative to preligation” value ([1]; by the end of the study) was “approached preligation levels”, the “ischemic hind-limb blood flow” value ([1]; treatment delayed to five days after surgery) was “restored” and the “DAF fluorescence (NO formation)” value ([2]; higher concentrations of exogenous nitrite required) was “large increases in DAF fluorescence”. The “nitrite reduction to NO” value ([2]; hypoxic conditions (1% oxygen)) was “reduced nitrite to NO”, the “nitrite reduction to NO, concentration dependence” value [3] was “reduced nitrite to NO at lower concentrations of exogenous nitrite” and the “nitrite reduction to NO” value ([3]; hypoxic conditions (1% oxygen)) was “reduced nitrite to NO”. The epithelial cell proliferation [4] was “but not non-ischemic tissues”, the arteriogenesis [5] was “significantly increased” and the “genes enhanced, FIG. 2 network” value ([6]; antigen presentation, cell mediated immunity, humoral mediated immunity) was “calsequestrin 2, GST alpha 5, and solute carrier family member 25”. The “genes inhibited, FIG. 6 network” value ([6]; cancer, nervous system development and function, tissue morphology) was “glycerol-3-phosphate dehydrogenase and protein phosphatase 2, reg subunit B”, the “genes enhanced, FIG. 3 network” value [6, 9] was “CXCR6, VE-cadherin, DIX domain containing 1, myosin, heavy chain 2, myosin, light chain 2, myosin, light chain 4, myosin, light chain 9, P2rY2, paired like homeodomain 2, troponin C, type 1, troponin T, type 2 and vitronectin” and the “genes inhibited, FIG. 3 network” value [6, 9] was “Rho Gtpase activating protein 17, CCR5, CXCL12, CXCL7, formin binding protein 1, G protein coupled receptor 65, 5-HT receptor 2B, serine/threonine kinase 17b and thrombospondin 2”. The “genes enhanced, FIG. 1 network” value ([6]; cardiovascular system development and function, tissue morphology, carbohydrate metabolism) was “flavin containing monoxygenase 5, smoothelin like 1, mysoin heavy chain 7, CUB zona pellucida like domains 1 and small proline rich protein 1A”, the “genes enhanced, FIG. 4 network” value [6, 10] was “cyclin M4, EH domain containing 2, myosin heavy chain 7, myosin light chain 9 regulatory, popeye domain containing 2 and TEA domain family member 4” and the “genes inhibited, FIG. 4 network” value [6, 10] was “adipose differentiated-related protein, chitinase 3-like 3, kinesin family member 20B, leukocyte specific transcript 1, RNA binding motif protein 47 and sorting nexin 6”. The genes down-regulated [6, 11] was 346 genes, the genes up-regulated [6, 11] was 111 genes and the “expression of genes associated with innate and acquired immune responses (FIG. 1)” value [6, 12] was “inhibited”. The “expression of genes involved in antigen presentation, cell mediated immunity, and humoral mediated immunity (FIG. 2)” value [6, 12] was “altered”, the “expression of genes involved in cardiovascular development and function, skeletal muscle development, and tissue development (FIG. 3)” value [6, 12] was “altered” and the “expression of genes involved in cardiovascular system development and function, tissue morphology, and carbohydrate metabolism (FIG. 1)” value [6, 12] was “enhanced”. The “expression of genes involved in cellular assembly and organization, carbohydrate metabolism and molecular transport (FIG. 4)” value [6, 12] was “altered”, the “expression of genes involved in inflammatory response, neurological disease and cellular development (FIG. 5)” value [6, 12] was “altered” and the “distinct gene expression profiles significantly altered” value ([6]; day 3 of ischemia, 165 μg/kg twice daily i.p., vs PBS, minimal 2-fold difference) was 457. For the same compound, the “expression of genes associated with tissue remodeling” value ([6]; day 7) was “enhanced”, the genes down-regulated [6, 13] was 55 genes and the genes up-regulated [6, 13] was 219 genes. The “expression of genes involved in cancer, nervous system development and function and tissue morphology (FIG. 6)” value ([6]; day 7, Ingenuity network analysis) was “altered”, the “genes with differentially impacted expression profile” value ([6]; day 7 of ischemia, 165 μg/kg twice daily i.p., vs PBS) was 274 genes and the “genes enhanced, FIG. 5 network” value [6, 14] was “glycogen syntase 1 (muscle), kin of IRRE like 3, solute carrier family 16, member 3, solute carrier family 8, member 3 and uridine-cytidine kinase 2”. The “genes inhibited, FIG. 5 network” value [6, 14] was “C-type lectin domain family 5, A, FERM domain containing 4B, receptor (G protein coupled) activity modifying protein 2, signal-regulatory protein beta 1, solute carrier family 15, member 3 and zinc finger E-box binding homeobox 2”, the “myogenin mRNA levels” value ([6]; ischemic mouse hindlimb gastrocnemius muscle, nitrite-treated animals (FIG. 25A)) was “significantly increased” and the body weight ([7]; delayed chronic treatment (FIG. 18A)) was “did not alter”. For the same compound, the blood glucose levels ([7]; delayed chronic treatment (FIG. 18B)) was “did not alter”, the serum cholesterol ([7]; delayed chronic treatment (FIG. 19A)) was “significantly decreased” and the “serum LDL” value ([7]; delayed chronic treatment (FIG. 19B)) was “significantly decreased”. The “myogenin mRNA” value (C2C12 myoblast cells; decreasing levels of sodium nitrite, inversely correlated with nitrite concentration) was “dose-dependent increase”, the “levels of myogenin mRNA” value (C2C12 myoblast cells; lowest dose 0.01 uM sodium nitrite) was “highest” and the “intracellular NO levels” value (cultured cells) was “lower concentrations, but not higher concentrations, of sodium nitrite resulted in a significant increase”. The digit loss [8] was “no digit loss” and the necrosis [8] was “minimal necrosis”.
